Test results taken from ChEMBL document CHEMBL3046963, “Fungicidal Activity of 2-Aminochromone-3-carboxamides” (1990).
In brackets after ≈: the same amount, converted by molar mass.

Experiments:
Format in all cases: functional
Rhizoctonia solani [1] = test: Fungicidal activity against Rhizoctonia solani by agar dilution method
Bipolaris oryzae = test: Fungicidal activity against Bipolaris oryzae by agar dilution method
Pyricularia oryzae [2] = test: Fungicidal activity against Magnaporthe oryzae by agar dilution method
Nakataea oryzae = test: Fungicidal activity against Magnaporthe salvinii by agar dilution method
Rhizoctonia solani [3] = test: In vivo fungicidal activity against Rhizoctonia solani in rice seedlings assessed as control of sheath blight disease at 500 ppm by curative foliar treatment
Pyricularia oryzae [4] = test: Fungicidal activity against Magnaporthe oryzae in rice seedlings assessed as control of rice blast at 500 ppm by curative foliar treatment
Fusarium fujikuroi [5] = test: Fungicidal activity against Fusarium fujikuroi assessed as infected rice seedlings in seed disinfection against bakanae disease at 1000 ppm by soaking method
Fusarium fujikuroi [6] = test: Fungicidal activity against Fusarium fujikuroi by agar dilution method
Pyricularia oryzae [7] = test: Fungicidal activity against Magnaporthe oryzae in rice seedlings assessed as control of rice blast at 500 ppm by preventive foliar treatment
Rhizoctonia solani [8] = test: In vivo fungicidal activity against Rhizoctonia solani in rice seedlings assessed as control of sheath blight disease at 250 ppm by curative foliar treatment

| Compound | MIC (Rhizoctonia solani [1]) [µg/mL] | MIC (Bipolaris oryzae) [µg/mL] | MIC (Pyricularia oryzae [2]) [µg/mL] | MIC (Nakataea oryzae) [µg/mL] | Activity (Rhizoctonia solani [3]) [%] | Activity (Pyricularia oryzae [4]) [%] | Activity (Fusarium fujikuroi [5]) [%] | MIC (Fusarium fujikuroi [6]) [µg/mL] | Activity (Pyricularia oryzae [7]) [%] | Activity (Rhizoctonia solani [8]) [%] |
| --- | --- | --- | --- | --- | --- | --- | --- | --- | --- | --- |
| CCCC(C)(C)c1ccc2oc(N)c(C(N)=O)c(=O)c2c1 | > 100 | > 100 | 1.56 (≈ 5.41 µM) | 6.25 (≈ 21.7 µM) | 100 | – | – | – | – | – |
| CC(C)(C)c1ccc2oc(N)c(C(N)=O)c(=O)c2c1 | 0.78 (≈ 3 µM) | 6.25 (≈ 24 µM) | 0.78 (≈ 3 µM) | 0.78 (≈ 3 µM) | 100 | 96 | 3 | 12.5 (≈ 48 µM) | 81 | – |
| CCC(C)(C)c1ccc2oc(N)c(C(N)=O)c(=O)c2c1 | > 100 | 50 (≈ 182 µM) | 3.12 (≈ 11.4 µM) | 6.25 (≈ 22.8 µM) | 100 | – | – | – | – | – |
| CCC(C)(CC)c1ccc2oc(N)c(C(N)=O)c(=O)c2c1 | > 100 | > 100 | 1.56 (≈ 5.41 µM) | 3.12 (≈ 10.8 µM) | 100 | – | – | – | – | – |
| CC(C)C(C)(C)c1ccc2oc(N)c(C(N)=O)c(=O)c2c1 | > 100 | > 100 | 3.12 (≈ 10.8 µM) | 6.25 (≈ 21.7 µM) | 100 | – | – | – | – | – |
| NC(=O)c1c(N)oc2ccc(F)cc2c1=O | 12.5 (≈ 56.3 µM) | > 100 | 25 (≈ 113 µM) | 25 (≈ 113 µM) | 100 | – | – | – | – | – |
| NC(=O)c1c(N)oc2ccc(Cl)cc2c1=O | 6.25 (≈ 26.2 µM) | > 100 | 3.12 (≈ 13.1 µM) | 12.5 (≈ 52.4 µM) | – | – | – | – | – | 96 |
| NC(=O)c1c(N)oc2ccc(Br)cc2c1=O | 3.12 (≈ 11 µM) | > 100 | 1.56 (≈ 5.51 µM) | 1.56 (≈ 5.51 µM) | 100 | – | – | – | – | – |
| NC(=O)c1c(N)oc2ccc(I)cc2c1=O | 12.5 (≈ 37.9 µM) | 12.5 (≈ 37.9 µM) | 3.12 (≈ 9.45 µM) | 3.12 (≈ 9.45 µM) | 100 | – | – | – | – | – |
| NC(=O)c1c(N)oc2c(Cl)cc(Cl)cc2c1=O | 100 (≈ 366 µM) | > 100 | > 100 | > 100 | 100 | – | – | – | – | – |
| NC(=O)c1c(N)oc2c(Br)cc(Br)cc2c1=O | > 100 | > 100 | > 100 | > 100 | 76 | – | – | – | – | – |
| O=c1[nH]cnc2oc3ccccc3c(=O)c12 | > 100 | > 100 | > 100 | > 100 | 0 | – | – | – | – | – |
| CC(=O)Nc1oc2ccccc2c(=O)c1C(N)=O | 25 (≈ 102 µM) | > 100 | 50 (≈ 203 µM) | 100 (≈ 406 µM) | 90 | – | – | – | – | – |
| CC(C)(C)c1ccc2oc3nc[nH]c(=O)c3c(=O)c2c1 | > 100 | > 100 | > 100 | > 100 | 0 | – | – | – | – | – |
| CC(=O)Nc1oc2ccc(C(C)(C)C)cc2c(=O)c1C(N)=O | 6.25 (≈ 20.7 µM) | 100 (≈ 331 µM) | 3.12 (≈ 10.3 µM) | 6.25 (≈ 20.7 µM) | 100 | – | – | – | – | – |
| CCOC(=O)Nc1oc2ccc(C(C)(C)C)cc2c(=O)c1C(N)=O | 50 (≈ 150 µM) | > 100 | 25 (≈ 75.2 µM) | 25 (≈ 75.2 µM) | 100 | – | – | – | – | – |
| CNC(=O)Nc1oc2ccc(C(C)(C)C)cc2c(=O)c1C(N)=O | > 100 | 100 (≈ 315 µM) | 0.78 (≈ 2.46 µM) | 0.78 (≈ 2.46 µM) | 100 | – | – | – | – | – |
| CNc1oc2ccc(C(C)(C)C)cc2c(=O)c1C(N)=O | 25 (≈ 91.1 µM) | 25 (≈ 91.1 µM) | 1.56 (≈ 5.69 µM) | 1.56 (≈ 5.69 µM) | 100 | – | – | – | – | – |
| Cc1oc2ccccc2c(=O)c1C(N)=O | > 100 | > 100 | > 100 | > 100 | 0 | – | – | – | – | – |
| N#Cc1c(N)oc2ccccc2c1=O | > 100 | > 100 | > 100 | > 100 | 0 | – | – | – | – | – |
| NC(=O)c1c(N)oc2ccccc2c1=O | 12.5 (≈ 61.2 µM) | > 100 | 25 (≈ 122 µM) | 12.5 (≈ 61.2 µM) | – | – | – | – | – | 100 |
| Cc1ccc2oc(N)c(C(N)=O)c(=O)c2c1 | 6.25 (≈ 28.6 µM) | 25 (≈ 115 µM) | 6.25 (≈ 28.6 µM) | 6.25 (≈ 28.6 µM) | – | – | – | – | – | 100 |
| CCc1ccc2oc(N)c(C(N)=O)c(=O)c2c1 | 3.25 (≈ 14 µM) | 25 (≈ 108 µM) | 0.78 (≈ 3.36 µM) | – | – | – | – | – | – | 90 |
| CC(C)c1ccc2oc(N)c(C(N)=O)c(=O)c2c1 | 100 (≈ 406 µM) | 100 (≈ 406 µM) | 1.56 (≈ 6.33 µM) | 3.12 (≈ 12.7 µM) | 85 | 94 | 6 | > 100 | 74 | – |
| CCCCc1ccc2oc(N)c(C(N)=O)c(=O)c2c1 | > 100 | > 100 | 50 (≈ 192 µM) | 50 (≈ 192 µM) | 90 | – | – | – | – | – |
| CCC(C)c1ccc2oc(N)c(C(N)=O)c(=O)c2c1 (centres undefined) | 6.25 (≈ 24 µM) | 25 (≈ 96 µM) | 0.78 (≈ 3 µM) | 0.78 (≈ 3 µM) | 79 | 96 | 6.5 | > 100 | 19 | – |
| C/C(=N/Nc1nc(C)cc(C)n1)c1ccccc1C [FERIMZONE] | 50 (≈ 197 µM) | 25 (≈ 98.3 µM) | 3.12 (≈ 12.3 µM) | 1.56 (≈ 6.13 µM) | 100 | 100 | – | > 100 | 99 | – |
